Results taken from ChEMBL document CHEMBL1777765, “Synthesis of 5-thiodidehydropyranylcytosine derivatives as potential anti-HIV agents” (2011).
Calls of active or inactive are those of the source. The rule behind the calls is not given here.

Columns and labels:
[1] = tested on: Human immunodeficiency virus 1; experiment: Antiviral activity against HIV1 infected in human PBMC assessed as inhibition of viral replication at 1 to 1000 nM by p24 HIV antigen capture assay; type: functional, organism-based
[2] = tested on: Human immunodeficiency virus 1; experiment: Antiviral activity against HIV1 infected in human PBMC assessed as inhibition of viral replication at 100 nM by p24 HIV antigen capture assay relative to control; type: functional
[3] = tested on: Human immunodeficiency virus 1; experiment: Antiviral activity against HIV1 infected in human PBMC assessed as inhibition of viral replication at 10 nM by p24 HIV antigen capture assay relative to control; type: functional

Structure (SMILES)	inhibition [1]	inhibition at 0.1 µM [2] [%]	inhibition at 0.01 µM [3] [%]
Nc1ccn([C@H]2C=C[C@@H](CO)[C@H](CO)S2)c(=O)n1	Active		
Nc1ccn([C@@H]2C=C[C@@H](CO)[C@H](CO)S2)c(=O)n1 (racemic)		75	65
Nc1ccn([C@@H]2CS[C@H](CO)O2)c(=O)n1 [LAMIVUDINE]			37
